Assay results published in patent US11673871B2, “Certain (2S)-N-[(1S)-1-cyano-2-phenylethyl]-1,4-oxazepane-2-carboxamides as dipeptidyl peptidase 1 inhibitors” (AstraZeneca AB, priority 2014, dated 2023).

Experiment: Test B: In-vitro competitive aortic tissue binding assay
Details: 100 μM compound pre-incubated overnight at 37° C. with rat aortic homogenate, competition with 100 μM [14C] WO2010/128324 Ex. 3
Description: To assist the design of DPP1 inhibitors with a decreased risk of binding to elastin rich tissues, such as the aorta, the in-vitro competitive aortic binding assay disclosed below (Test B) was developed to facilitate the selection process.
Test B: In-vitro competitive aortic tissue binding assay Aortic homogenate was prepared from the thoracic aortae of Han Wistar rats. Freshly isolated thoracic aortae were frozen, and later thawed and stripped of non-elastic material. […] Homogenate concentration was adjusted to 30 mg/mL in Puck's saline, and aliquots were stored at −80° C. until use. Positive and negative control compounds and test compounds were made up to 100 mM in DMSO, and added to 1 mL aliquots of aortic homogenate in Puck's saline for a final concentration of 100 μM. Homogenate samples were pre-incubated with test compounds at 37° C., rotating, overnight. [^14C]4-Amino-N-[(1S)-1-cyano-2-(4′-cyanobiphenyl-4-yl)ethyl]tetrahydro-2H-pyran-4-carboxamide was then added to all samples to a final concentration of 100 μM, and samples were incubated at 37° C., rotating, for a further 2 h. Protein was precipitated from each sample by the addition of 10 mL acetone, pre-chilled to −20° C. Samples were left overnight at −20° C. to allow complete precipitation. Precipitate was pelleted by centrifugation at 4,500×g at 4° C. for 20 min, an aliquot of supernatant was removed for analysis, and the remainder of the supernatant discarded. Precipitate was washed by resuspension in 10 mL 80% methanol in distilled water, and re-pelleted by centrifugation at 4,500×g at 4° C. for 20 min. […] After final wash, precipitate was air-dried, and dissolved overnight in 1 mL NCSII Tissue Solubiliser. 1 mL aliquots of supernatants were added to 5 mL Ultima Gold scintillation fluid (Perkin Elmer, MA, U.S.A.), and 1 mL solubilised pellets were added to 5 mL Hionic-Fluor scintillation fluid (Perkin Elmer, MA, U.S.A.). Radioactivity of samples was determined on a Beckman LS6500 multipurpose scintillation counter (Beckman Coulter, IN, U.S.A.). […] Duplicate samples were tested for each compound on each experimental occasion, and at least two experiments were run for each test compound. […] 1-way ANOVA and Bonferroni's multiple comparison tests were performed to calculate significance of differences from vehicle control.

Row | Aortic Tissue Binding | SMILES
1 | No binder | Cn1c(=O)oc2ccc(-c3ccc(C[C@@H](C#N)NC(=O)[C@@H]4CNCCCO4)cc3)cc21 [Example 2, (2S)-N-{(1S)-1-Cyano-2-[4-(3-methyl-2-oxo-2,3-dihydro-1,3-benzoxazol-5-yl)phenyl]ethyl}-1,4-oxazepane-2-carboxamide]
2 | Binder | N#Cc1ccc(-c2ccc(C[C@@H](C#N)NC(=O)[C@@H]3CCCCN3)cc2)cc1 [WO2009/074829 (Example 24)]
3 | Medium binder | Cn1c(=O)oc2ccc(-c3ccc(C[C@@H](C#N)NC(=O)[C@@H]4CCCCN4)cc3)cc21 [WO2009/074829 (Example 96)]
4 | Strong binder (reference) | N#Cc1ccc(-c2ccc(C[C@@H](C#N)NC(=O)C3(N)CCOCC3)cc2)cc1 [WO2010/128324 (Ex. 3), 4-amino-N-[(1S)-1-cyano-2-(4′-cyanobiphenyl-4-yl)ethyl]tetrahydro-2H-pyran-4-carboxamide]
5 | Strong binder | Cn1c(=O)oc2ccc(-c3ccc(C[C@@H](C#N)NC(=O)C4(N)CCOCC4)cc3)cc21 [WO2010/128324 (Example 17)]
